Experimental data reported in patent US11214594B2, “Antimicrobial peptide having synergistic antibacterial effect with antibiotics on multidrug resistant bacteria, and use thereof” (priority 2016, dated 2022).
Converted amounts (≈) assume the structure as drawn. Where a SMILES comes first, the peptide text is derived from it. [ ]: non-standard residue; d: D form.

Columns and labels:
[1] = test system: MDRPA 2002; type: cell-based, Pseudomonas aeruginosa
Method in brief: (§1)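 Each strain is brought to 2×10^6 CFU in nutrient-sufficient Mueller-Hinton medium and dispensed into wells. Peptide solutions, stepwise diluted 2:1 in the same medium, are then added. The minimal concentration preventing growth gives the MIC.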

[2] = test system: MDRPA 2003; type: cell-based, Pseudomonas aeruginosa
Method in brief: as §1

[3] = test system: MDRAB 12035; test: MIC of antibiotic during combined treatment with antimicrobial peptide; type: cell-based, Acinetobacter baumannii
Method in brief: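 Antibiotic MIC came from antibiotic dilutions added to bacteria (2×10^6 CFU/ml, MH medium) already combined with peptide serially diluted 2:1 from its own MIC. Swapping the roles of the two agents gave the peptide MIC.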

[4] = test system: MDREC 1238; type: cell-based, Escherichia coli
Method in brief: as §1

[5] = test system: multi-drug resistant bacteria; test: MIC, summary statements for multi-drug resistant bacteria; type: cell-based
Procedure: For the antibacterial activity, a minimal inhibitory concentration (MIC) of a peptide in which fungus bodies were not split in an MH medium with sufficient nutrients was measured.
Specifically, the strains described in the following [Table 2] were purchased and diluted with an MH medium such that the number of bacteria was 2×10^6 colony-forming units (CFUs), 100 μl of each of the diluted strains was aliquoted into a 96-well microtiter plate, and then 100 μl of a peptide solution diluted with the MH medium (solution diluted stepwise at 2: 1) was added to each well.

[6] = test system: MDRST 8007; test: Minimal inhibitory concentration (MIC), single agent; type: cell-based, Salmonella typhimurium; conditions: agent alone
Method in brief: as §1

[7] = test system: S. typhimurium; test: microbe, parasite or virus in culture; type: cell-based, Salmonella typhimurium
Method in brief: as §1

[8] = test system: MDRAB 12036; type: cell-based, Acinetobacter baumannii
Method in brief: as §1

[9] = test system: A. baumannii; test: microbe, parasite or virus in culture; type: cell-based, Acinetobacter baumannii; conditions: for Antibacterial activity relative to PapMA-1: A. baumannii and S. typhimurium
Method in brief: as §1

[10] = test system: MDRAB 12035; test: microbe, parasite or virus in culture; type: cell-based, Acinetobacter baumannii
Method in brief: as §1

[11] = test system: S. aureus; test: microbe, parasite or virus in culture; type: cell-based, Staphylococcus aureus
Method in brief: as §1

[12] = test system: MRSA 3126; type: cell-based, Staphylococcus aureus; conditions: 3126
Method in brief: as §1

[13] = test system: MRSA 3114; type: cell-based, Staphylococcus aureus; conditions: 3114
Method in brief: as §1

[14] = peptide treatment concentration 1 μg/ml
[15] = peptide treatment concentration 2 μg/ml
[16] = peptide treatment concentration 4 μg/ml
[17] = peptide treatment concentration 6 μg/ml
[18] = peptide treatment concentration 8 μg/ml
[19] = peptide treatment concentration 16 μg/ml
[20] = peptide treatment concentration 32 μg/ml
[21] = peptide treatment concentration 64 μg/ml

Row | Structure (SMILES) | Minimal inhibitory concentration MIC [1] | Minimal inhibitory concentration MIC [2] | Erythromycin MIC during combined treatment with peptide [3, 14] | Linezolid MIC during combined treatment with peptide [3, 14] | Vancomycin MIC during combined treatment with peptide [3, 14] | Erythromycin MIC during combined treatment with peptide [3, 15] | Linezolid MIC during combined treatment with peptide [3, 15] | Vancomycin MIC during combined treatment with peptide [3, 15] | Erythromycin MIC during combined treatment with peptide [3, 16] | Linezolid MIC during combined treatment with peptide [3, 16] | Vancomycin MIC during combined treatment with peptide [3, 16] | Erythromycin MIC during combined treatment with peptide [3, 17] | Linezolid MIC during combined treatment with peptide [3, 17] | Vancomycin MIC during combined treatment with peptide [3, 17] | Erythromycin MIC during combined treatment with peptide [3, 18] | Linezolid MIC during combined treatment with peptide [3, 18] | Vancomycin MIC during combined treatment with peptide [3, 18] | Erythromycin MIC during combined treatment with peptide [3, 19] | Linezolid MIC during combined treatment with peptide [3, 19] | Vancomycin MIC during combined treatment with peptide [3, 19] | also measured
1 | CC[C@H](C)[C@H](NC(=O)[C@H](CCCCN)NC(=O)[C@H](Cc1c[nH]c2ccccc12)NC(=O)[C@@H](N)CCCNC(=N)N)C(=O)N[C@@H](Cc1ccccc1)C(=O)N[C@@H](CCCCN)C(=O)N[C@@H](CCCCN)C(=O)N[C@H](C(=O)N[C@H](CCCCN)C(=O)N[C@@H](CCCCN)C(=O)N[C@@H](CC(C)C)C(=O)N[C@@H](CC(C)C)C(=O)N[C@@H](Cc1c[nH]cn1)C(=O)N[C@@H](CCC(=O)O)C(=O)N[C@@H](Cc1ccccc1)C(=O)N[C@@H](CCCCN)C(=O)N[C@@H](CCCCN)C(=O)N[C@@H](Cc1ccccc1)C(N)=O)[C@@H](C)CC [PapMA-19, RWK IFK KIk KLL HEF KKF-NH2] (H-RWKIFKKI[dK]KLLHEFKKF-NH2; N-terminus assumed) | 64 µg/mL (≈ 26.5 µM) | 64 µg/mL (≈ 26.5 µM) | 32 µg/mL | >128 µg/mL | >128 µg/mL | 16 µg/mL | 128 µg/mL | 128 µg/mL | 8 µg/mL | 64 µg/mL | 64 µg/mL | 2 µg/mL | 16 µg/mL | 32 µg/mL | 0.5 µg/mL | 8 µg/mL | 16 µg/mL | 0.125 µg/mL | 4 µg/mL | 8 µg/mL | Erythromycin MIC during combined treatment with peptide [3, 20]: 0 µg/mL; Linezolid MIC during combined treatment with peptide [3, 20]: 0 µg/mL; Vancomycin MIC during combined treatment with peptide [3, 20]: 0 µg/mL; Erythromycin MIC during combined treatment with peptide [3, 21]: 0 µg/mL; Linezolid MIC during combined treatment with peptide [3, 21]: 0 µg/mL; Vancomycin MIC during combined treatment with peptide [3, 21]: 0 µg/mL; Minimal inhibitory concentration MIC [4]: 32 µg/mL (≈ 13.2 µM); Antibacterial activity relative to PapMA-1 [5]: twice to four times higher; Minimal inhibitory concentration MIC [6]: 64 µg/mL (≈ 26.5 µM); Minimal inhibitory concentration MIC [7]: 32 µg/mL (≈ 13.2 µM); Minimal inhibitory concentration MIC [8]: 32 µg/mL (≈ 13.2 µM); Minimal inhibitory concentration MIC [9]: 16 µg/mL (≈ 6.62 µM); Peptide MIC, peptide alone [9]: 16 µg/mL; Antibacterial activity relative to PapMA-1 [9]: at least twice as high; Minimal inhibitory concentration MIC [10]: 32 µg/mL (≈ 13.2 µM); Peptide MIC, peptide alone [10]: 32 µg/mL; Minimal inhibitory concentration MIC [11]: >128 µg/mL; Minimal inhibitory concentration MIC [12]: >128 µg/mL; Minimal inhibitory concentration MIC [13]: >128 µg/mL
2 | CC[C@H](C)[C@H](NC(=O)[C@H](CCCCN)NC(=O)[C@H](Cc1c[nH]c2ccccc12)NC(=O)[C@@H](N)CCCNC(=N)N)C(=O)N[C@@H](Cc1ccccc1)C(=O)N[C@@H](CCCCN)C(=O)N[C@@H](CCCCN)C(=O)N[C@H](C(=O)N1CCC[C@H]1C(=O)N[C@@H](CCCCN)C(=O)N[C@@H](CC(C)C)C(=O)N[C@@H](CC(C)C)C(=O)N[C@@H](Cc1c[nH]cn1)C(=O)N[C@@H](CCC(=O)O)C(=O)N[C@@H](C)C(=O)N[C@@H](CCCCN)C(=O)N[C@@H](CCCCN)C(=O)N[C@@H](Cc1c[nH]c2ccccc12)C(N)=O)[C@@H](C)CC [PapMA-13, RWK IFK KIP KLL HEA KKW-NH2] (H-RWKIFKKIPKLLHEAKKW-NH2; N-terminus assumed) | 128 µg/mL (≈ 54.5 µM) | 128 µg/mL (≈ 54.5 µM) | 16 µg/mL | 128 µg/mL | 128 µg/mL | 8 µg/mL | 32 µg/mL | 64 µg/mL | 4 µg/mL | 16 µg/mL | 16 µg/mL | 1 µg/mL | 8 µg/mL | 2 µg/mL | 0.5 µg/mL | 2 µg/mL | 1 µg/mL | 0 µg/mL | 0 µg/mL | 0 µg/mL | Erythromycin MIC during combined treatment with peptide [3, 20]: 0 µg/mL; Linezolid MIC during combined treatment with peptide [3, 20]: 0 µg/mL; Vancomycin MIC during combined treatment with peptide [3, 20]: 0 µg/mL; Erythromycin MIC during combined treatment with peptide [3, 21]: 0 µg/mL; Linezolid MIC during combined treatment with peptide [3, 21]: 0 µg/mL; Vancomycin MIC during combined treatment with peptide [3, 21]: 0 µg/mL; Minimal inhibitory concentration MIC [4]: 16 µg/mL (≈ 6.81 µM); Antibacterial activity relative to PapMA-1 [5]: twice to four times higher; Minimal inhibitory concentration MIC [6]: 16 µg/mL (≈ 6.81 µM); Minimal inhibitory concentration MIC [7]: 16 µg/mL (≈ 6.81 µM); Minimal inhibitory concentration MIC [8]: 16 µg/mL (≈ 6.81 µM); Minimal inhibitory concentration MIC [9]: 16 µg/mL (≈ 6.81 µM); Peptide MIC, peptide alone [9]: 16 µg/mL; Antibacterial activity relative to PapMA-1 [9]: at least twice as high; Minimal inhibitory concentration MIC [10]: 16 µg/mL (≈ 6.81 µM); Peptide MIC, peptide alone [10]: 16 µg/mL; Minimal inhibitory concentration MIC [11]: >128 µg/mL; Minimal inhibitory concentration MIC [12]: >128 µg/mL; Minimal inhibitory concentration MIC [13]: >128 µg/mL
3 | CC[C@H](C)[C@H](NC(=O)[C@H](CCCCN)NC(=O)[C@H](Cc1c[nH]c2ccccc12)NC(=O)[C@@H](N)CCCNC(=N)N)C(=O)N[C@@H](Cc1ccccc1)C(=O)N[C@@H](CCCCN)C(=O)N[C@@H](CCCCN)C(=O)N[C@H](C(=O)N1CCC[C@H]1C(=O)N[C@@H](CCCCN)C(=O)N[C@@H](CC(C)C)C(=O)N[C@@H](CC(C)C)C(=O)N[C@@H](Cc1c[nH]cn1)C(=O)N[C@@H](CO)C(=O)N[C@@H](C)C(=O)N[C@@H](CCCCN)C(=O)N[C@@H](CCCCN)C(=O)N[C@@H](Cc1c[nH]c2ccccc12)C(N)=O)[C@@H](C)CC [PapMA-9, RWK IFK KIP KLL HSA KKW-NH2] (H-RWKIFKKIPKLLHSAKKW-NH2; N-terminus assumed) | 16 µg/mL (≈ 6.94 µM) | 16 µg/mL (≈ 6.94 µM) | 16 µg/mL | >128 µg/mL | >128 µg/mL | 16 µg/mL | 64 µg/mL | 128 µg/mL | 4 µg/mL | 32 µg/mL | 64 µg/mL | 0.5 µg/mL | 16 µg/mL | 16 µg/mL | 0.25 µg/mL | 4 µg/mL | 8 µg/mL | 0.25 µg/mL | 4 µg/mL | 8 µg/mL | Erythromycin MIC during combined treatment with peptide [3, 20]: 0.125 µg/mL; Linezolid MIC during combined treatment with peptide [3, 20]: 2 µg/mL; Vancomycin MIC during combined treatment with peptide [3, 20]: 2 µg/mL; Erythromycin MIC during combined treatment with peptide [3, 21]: 0 µg/mL; Linezolid MIC during combined treatment with peptide [3, 21]: 0 µg/mL; Vancomycin MIC during combined treatment with peptide [3, 21]: 0 µg/mL; Minimal inhibitory concentration MIC [4]: 64 µg/mL (≈ 27.7 µM); Minimal inhibitory concentration MIC [6]: 64 µg/mL (≈ 27.7 µM); Minimal inhibitory concentration MIC [7]: 32 µg/mL (≈ 13.9 µM); Minimal inhibitory concentration MIC [8]: 64 µg/mL (≈ 27.7 µM); Minimal inhibitory concentration MIC [9]: 32 µg/mL (≈ 13.9 µM); Peptide MIC, peptide alone [9]: 32 µg/mL; Minimal inhibitory concentration MIC [10]: 64 µg/mL (≈ 27.7 µM); Peptide MIC, peptide alone [10]: 64 µg/mL; Minimal inhibitory concentration MIC [11]: >128 µg/mL; Minimal inhibitory concentration MIC [12]: >128 µg/mL; Minimal inhibitory concentration MIC [13]: >128 µg/mL
